In patent US20210290721A1, “ORAL FORMULATIONS FOR PROMOTING CELLULAR PURIFICATION” (NSE Products, Inc., priority 2011, published 2021):

How the values were obtained:
GCLC = assay: RT-qPCR expression of GCLC in gastrocnemius muscle of old mice; type: in vivo, B6C3F1 mice; details: for effect on age-related decreases in the expression of GCLC: YC vs OC and OC vs old treated mice; for GCLC expression: diet supplemented from 14 to 30 months of age, old treated vs old controls (OC)
Excerpt: (§1) B6C3F1 mice were obtained and housed as in Example 1. For the young control (YC) group, starting at 8 weeks of age and continuing until 22 weeks of age, mice were maintained on the AIN93^M diet; For the old animal groups, starting at 14 months of age and continuing until 30 months of age, mice were either 1) maintained on the AIN93^M diet (old controls, OC); 2) fed a calorie or energy restricted (CR) diet providing 63 kcal/week of a modified AIN93^M formulation; or 3) were assigned to an AIN93^M diet supplemented with one of several plant extracts, vitamins or phytochemicals; the amount of each ingredient per kilogram diet varied depending on the experimental ingredient studied. At the end of the feeding period, tissues were collected from the gastrocnemius muscles of the mice, flash-frozen in liquid nitrogen and stored at −80° C. for later analysis.
To determine if CR or an ingredient opposed age-related declines in the Nrf2 pathway to regulate expression of xenobiotic metabolism genes and oxidative stress genes, we performed quantitative real-time PCR (RT-qPCR) analysis on RNA isolated from gastrocnemius muscle from all groups of mice. The magnitude of change was determined for each gene (YC vs. OC and OC vs Old treated mice). Two-tailed t-tests (assuming equal variance) were used to determine if the change in expression for individual genes was statistically significant. The magnitude of the change in expression is reported as “fold change” values which are log 2-adjusted to fit normality assumptions for statistical analyses.
A panel of 5 genes representative of the Nrf2 pathway was selected for screening the ingredients: GCLM, GCLC, GSR, GSTA1, and NQO1. Ingredients screened in the muscle included: alpha lipoic acid, CoQ10, Pomegranate, Resveratrol and others.

iNOS/Nos2 = assay: RT-qPCR expression of iNOS/Nos2 in lung of young mice; type: in vivo, C57BL/6J mice; details: diet supplemented from 8 to 22 weeks of age, treated vs YC
Excerpt: C57BL/6J mice were obtained at 6 weeks of age and individually housed in shoebox cages and provided with 24 grams (˜84 kcal) of AIN-93^M diet per week (7 grams on Monday and Wednesday and 10 grams on Friday). Starting at 8 weeks of age and continuing until 22 weeks of age, mice were either 1) maintained on the AIN93^M diet (Young Controls, YC); 2) fed a Calorie Restricted (CR) diet providing 63 kcal/week of a modified AIN93^M formulation; or 3) were assigned to an AIN93^M diet supplemented with one of several plant extracts, vitamins or phytochemicals; the amount of each ingredient per kilogram diet varied depending on the experimental ingredient studied. At 22 weeks of age, tissues were collected from mice, flash-frozen in liquid nitrogen and stored at −80° C. for later analysis.
To determine if CR or an ingredient positively influenced the Nrf2 pathway to regulate expression of xenobiotic metabolism genes and oxidative stress genes and/or positively influenced genes responsible for regulation of inflammation, we performed quantitative real-time PCR (RT-qPCR) analysis on RNA isolated from entire livers and lungs from all groups of mice. Briefly, the magnitude of change was determined for each gene, comparing the young control (YC) group vs. the caloric or energy restriction (CR) group and YC vs. Treated mice. […]

GSR = assay: RT-qPCR expression of GSR in gastrocnemius muscle of old mice; type: in vivo, B6C3F1 mice
Excerpt: as §1, with “analysis. To determine if CR or an ingredient opposed age-related declines in the Nrf2 pathway to regulate expression of xenobiotic metabolism genes and oxidative stress genes, we performed quantitative real-time PCR (RT-qPCR) analysis on RNA isolated from gastrocnemius muscle from all groups of mice. The magnitude of change was determined for each gene (YC vs. OC and OC vs Old treated mice). Two-tailed t-tests (assuming equal variance) were used to determine if the change in expression for individual genes was statistically significant. […]” for “analysis.”

[1] = tested on: Nrf2/ARE/detoxification related genes; assay: RT-qPCR gene expression screening in liver of young mice fed ingredient-supplemented diet; type: in vivo, C57BL/6J mice; details: diet supplemented from 8 to 22 weeks of age, treated vs young control (YC)

Compound | effect on age-related decreases in the expression of GCLC (GCLC) | GCLC expression (GCLC) | change in iNOS/Nos2 expression in the lung (iNOS/Nos2) | effect on age-related decreases in the expression of GSR (GSR; YC vs OC and OC vs old treated mice) | GSR expression (GSR; diet supplemented from 14 to 30 months of age, old treated vs OC) | gene expression changes in the liver (impact of ingredient) [1]
COC1=C(OC)C(=O)C(C/C=C(\C)CC/C=C(\C)CC/C=C(\C)CC/C=C(\C)CC/C=C(\C)CC/C=C(\C)CC/C=C(\C)CC/C=C(\C)CC/C=C(\C)CCC=C(C)C)=C(C)C1=O [CoQ10, coenzyme Q10] | opposed age related decreases | upregulated | Modest downregulation | – | – | –
O=C(O)CCCCC1CCSS1 (stereo not drawn) [alpha lipoic acid] | opposed age-related decreases | upregulated | – | opposed age-related decreases | upregulated | greatest positive impact
O=c1c(O)c(-c2ccc(O)c(O)c2)oc2cc(O)cc(O)c12 [quercetin, Quercetin] | – | – | Modest downregulation | – | – | –
